According to patent US9624170B2, “4-(piperrazin-1-yl)-pyrrolidin-2-one compounds as monoacylglycerol lipase (MAGL) inhibitors” (TAKEDA PHARMACEUTICAL COMPANY LIMITED, priority 2013, dated 2017):

biological target: T1, human MAGL (His-hMAGL) (Homo sapiens, UniProt Q99685); assay: Measurement of MAGL inhibitory activity by mass spectrometry; format: biochemical; details: 10 μM test compound; substrate 2-arachidonylglycerol, arachidonic acid by RapidFire-mass spectrometry
T1 construct: made in house; host or cells: Escherichia coli BL21(DE3)
T1 sequence (Q99685 1-303): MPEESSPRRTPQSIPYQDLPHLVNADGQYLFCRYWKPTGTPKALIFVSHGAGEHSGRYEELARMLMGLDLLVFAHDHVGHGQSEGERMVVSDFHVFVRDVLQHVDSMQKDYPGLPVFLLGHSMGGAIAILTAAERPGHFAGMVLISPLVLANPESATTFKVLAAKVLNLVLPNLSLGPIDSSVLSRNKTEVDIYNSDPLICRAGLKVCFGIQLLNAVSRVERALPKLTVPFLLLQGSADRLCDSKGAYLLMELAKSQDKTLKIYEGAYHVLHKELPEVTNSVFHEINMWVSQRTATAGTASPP
Outline: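 His-tagged human MAGL was reacted with 150 μM 2-arachidonylglycerol substrate (stock, added by 5 μL) for 10 min at room temperature, then stopped with formic acid. Arachidonic acid product was quantified by RapidFire–triple-quadrupole MS in negative SRM mode, corrected by arachidonic acid-d8, and converted to percent inhibition.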

Row | inhibition at 10 µM [%] | SMILES
1 | 101 | O=C1Cc2cc(-c3cccc(N4CC(N5CCN(C(=O)c6nccs6)CC5)CC4=O)c3)ccc2N1 (stereo not drawn) [Example 105, 5-(3-(2-oxo-4-(4-(1,3-thiazol-2-ylcarbonyl)piperazin-1-yl)pyrrolidin-1-yl)phenyl)-1,3-dihydro-2H-indol-2-one]
2 | 96 | Cc1ccc(-c2cccc(N3CC(N4CCN(C(=O)c5nccs5)CC4)CC3=O)c2)nc1 (stereo not drawn) [Example 149, 1-(3-(5-Methylpyridin-2-yl)phenyl)-4-(4-(1,3-thiazol-2-ylcarbonyl)piperazin-1-yl)pyrrolidin-2-one]
3 | 100 | NS(=O)(=O)c1cccc(-c2cccc(N3CC(N4CCN(C(=O)c5nccs5)CC4)CC3=O)c2)c1 (stereo not drawn) [Example 103, 3′-(2-oxo-4-(4-(1,3-thiazol-2-ylcarbonyl)piperazin-1-yl)pyrrolidin-1-yl)biphenyl-3-sulfonamide]
4 | 99 | Cn1nccc1-c1cccc(N2CC(N3CCN(C(=O)c4nccs4)CC3)CC2=O)c1 (stereo not drawn) [Example 101, 1-(3-(1-methyl-1H-pyrazol-5-yl)phenyl)-4-(4-(1,3-thiazol-2-ylcarbonyl)piperazin-1-yl)pyrrolidin-2-one]
5 | 99 | O=C(c1nccs1)N1CCN(C2CC(=O)N(c3cccc(-c4ncccc4Cl)c3)C2)CC1 (stereo not drawn) [Example 151, 1-(3-(3-chloropyridin-2-yl)phenyl)-4-(4-(1,3-thiazol-2-ylcarbonyl)piperazin-1-yl)pyrrolidin-2-one]

same assay, conditions: MAGL inhibitory rate, test compound 10 μM, His-hMAGL, substrate 2-arachidonylglycerol, RapidFire-mass spectrometry

Row | SMILES | inhibition at 10 µM [%]
6 | O=C(c1nccs1)N1CCN(C2CC(=O)N(c3ccc(-c4ccccc4)cc3)C2)CC1 (stereo not drawn) [Example 213, 1-(biphenyl-4-yl)-4-(4-(1,3-thiazol-2-ylcarbonyl)piperazin-1-yl)pyrrolidin-2-one] | 100
7 | Cc1ccc(-n2ccc3cc(N4CC(N5CCN(C(=O)c6nccs6)CC5)CC4=O)ccc32)nc1 (stereo not drawn) [Example 239, 1-(1-(5-methylpyridin-2-yl)-1H-indol-5-yl)-4-(4-(1,3-thiazol-2-ylcarbonyl)piperazin-1-yl)pyrrolidin-2-one] | 100
8 | O=C(c1nccs1)N1CCN(C2CC(=O)N(c3cccc(-c4cccc5cn[nH]c45)c3)C2)CC1 (stereo not drawn) [Example 317, 1-(3-(1H-indazol-7-yl)phenyl)-4-(4-(1,3-thiazol-2-ylcarbonyl)piperazin-1-yl)pyrrolidin-2-one] | 99
9 | O=C1Cc2cccc(-c3cccc(N4CC(N5CCN(C(=O)c6nccs6)CC5)CC4=O)c3)c2N1 (stereo not drawn) [Example 222, 7-(3-(2-oxo-4-(4-(1,3-thiazol-2-ylcarbonyl)piperazin-1-yl)pyrrolidin-1-yl)phenyl)-1,3-dihydro-2H-indol-2-one] | 98
10 | Cc1nn(C)cc1-c1ccc(N2CC(N3CCN(C(=O)c4nccs4)CC3)CC2=O)cc1 (stereo not drawn) [Example 181, 1-(4-(1,3-dimethyl-1H-pyrazol-4-yl)phenyl)-4-(4-(1,3-thiazol-2-ylcarbonyl)piperazin-1-yl)pyrrolidin-2-one] | 94
11 | CN1C(=O)Cc2cccc(-c3cccc(N4CC(N5CCN(C(=O)c6nccs6)CC5)CC4=O)c3)c21 (stereo not drawn) [Example 229, 1-methyl-7-(3-(2-oxo-4-(4-(1,3-thiazol-2-ylcarbonyl)piperazin-1-yl)pyrrolidin-1-yl)phenyl)-1,3-dihydro-2H-indol-2-one] | 100
12 | Cc1cccc(-c2ccc(N3CC(N4CCN(C(=O)c5nccs5)CC4)CC3=O)cc2)n1 (stereo not drawn) [Example 274, 1-(4-(6-methylpyridin-2-yl)phenyl)-4-(4-(1,3-thiazol-2-ylcarbonyl)piperazin-1-yl)pyrrolidin-2-one] | 96
13 | Cc1cc(F)ccc1-c1cccc(N2CC(N3CCN(C(=O)c4nccs4)CC3)CC2=O)c1 (stereo not drawn) [Example 301, 1-(4′-fluoro-2′-methylbiphenyl-3-yl)-4-(4-(1,3-thiazol-2-ylcarbonyl)piperazin-1-yl)pyrrolidin-2-one] | 104
14 | Cc1cc(-c2ccc(N3CC(N4CCN(C(=O)c5nccs5)CC4)CC3=O)cc2)n(C)n1 (stereo not drawn) [Example 180, 1-(4-(1,3-dimethyl-1H-pyrazol-5-yl)phenyl)-4-(4-(1,3-thiazol-2-ylcarbonyl)piperazin-1-yl)pyrrolidin-2-one] | 94
15 | O=C(c1nccs1)N1CCN(C2CC(=O)N(c3cccc(-c4cccc5c4OCC5)c3)C2)CC1 (stereo not drawn) [Example 314, 1-(3-(2,3-dihydro-1-benzofuran-7-yl)phenyl)-4-(4-(1,3-thiazol-2-ylcarbonyl)piperazin-1-yl)pyrrolidin-2-one] | 104
16 | O=C(O)c1cccc(-c2cccc(N3CC(N4CCN(C(=O)c5nccs5)CC4)CC3=O)c2)c1 (stereo not drawn) [Example 308, 3′-(2-oxo-4-(4-(1,3-thiazol-2-ylcarbonyl)piperazin-1-yl)pyrrolidin-1-yl)biphenyl-3-carboxylic acid] | 98

Continued, values first:

Row | inhibition at 10 µM [%] | SMILES
17 | 101 | COc1nccc2[nH]cc(-c3cccc(N4CC(N5CCN(C(=O)c6nccs6)CC5)CC4=O)c3)c12 (stereo not drawn) [Example 343, 1-(3-(4-methoxy-1H-pyrrolo[3,2-c]pyridin-3-yl)phenyl)-4-(4-(1,3-thiazol-2-ylcarbonyl)piperazin-1-yl)pyrrolidin-2-one]
18 | 80 | COc1ccc(CC(=O)N2CCc3cc(N4CC(N5CCN(c6ncccn6)CC5)CC4=O)ccc32)cn1 (stereo not drawn) [Example 410, 1-(1-((6-methoxypyridin-3-yl)acetyl)-2,3-dihydro-1H-indol-5-yl)-4-(4-(pyrimidin-2-yl)piperazin-1-yl)pyrrolidin-2-one]
19 | 97 | O=C1CC(N2CCN(c3ncccn3)CC2)CN1c1ccc2c(c1)CCN2c1ccnc(C(F)(F)F)c1 (stereo not drawn) [Example 377, 4-(4-(pyrimidin-2-yl)piperazin-1-yl)-1-(1-(2-(trifluoromethyl)pyridin-4-yl)-2,3-dihydro-1H-indol-5-yl)pyrrolidin-2-one]
20 | 100 | O=C(c1cscn1)N1CCN([C@@H]2CC(=O)N(c3ccc4c(c3)CCN4c3ccc(F)cc3)C2)CC1 [Example 429, (4R)-1-(1-(4-fluorophenyl)-2,3-dihydro-1H-indol-5-yl)-4-(4-(1,3-thiazol-4-ylcarbonyl)piperazin-1-yl)pyrrolidin-2-one]
21 | 99 | O=C(c1cscn1)N1CCN([C@@H]2CC(=O)N(c3ccc4c(c3)CCN4C(=O)Cc3cccc(Cl)c3)C2)CC1 [Example 416, (4R)-1-(1-((3-chlorophenyl)acetyl)-2,3-dihydro-1H-indol-5-yl)-4-(4-(1,3-thiazol-4-ylcarbonyl)piperazin-1-yl)pyrrolidin-2-one]
22 | 98 | COc1ccccc1-c1cc(N2CC(N3CCN(C(=O)c4nccs4)CC3)CC2=O)cc2cn[nH]c12 (stereo not drawn) [Example 355, 1-(7-(2-methoxyphenyl)-1H-indazol-5-yl)-4-(4-(1,3-thiazol-2-ylcarbonyl)piperazin-1-yl)pyrrolidin-2-one]
23 | 104 | O=C(c1nccs1)N1CCN(C2CC(=O)N(c3cccc(-c4cccc5ccoc45)c3)C2)CC1 (stereo not drawn) [Example 329, 1-(3-(1-benzofuran-7-yl)phenyl)-4-(4-(1,3-thiazol-2-ylcarbonyl)piperazin-1-yl)pyrrolidin-2-one]
24 | 100 | O=C(c1nccs1)N1CCN(C2CC(=O)N(c3cccc(-c4n[nH]c5ccccc45)c3)C2)CC1 (stereo not drawn) [Example 332, 1-(3-(1H-indazol-3-yl)phenyl)-4-(4-(1,3-thiazol-2-ylcarbonyl)piperazin-1-yl)pyrrolidin-2-one]
